Values quoted from earlier work as cited in patent US20090325918A1, “Synthesis and separation of optically active isomers and cyclopropyl derivatives of spironolactone and their biological action” (priority 2008, published 2009).

Tests used:
[1] = tested on: patients with congestive heart failure (CHF)
[2] = tested on: hypertensive patients; settings: hypertensive patients using spironolactone for therapy; 1% of men in the placebo group

## CC(=O)S[C@@H]1CC2=CC(=O)CC[C@]2(C)[C@H]2CC[C@@]3(C)[C@@H](CC[C@@]34CCC(=O)O4)[C@H]12 [spironolactone, 17-hydroxy-7-alpha-mercapto-3-oxo-17-alpha-pregn-4-ene-21-carboxylic acid gamma-lactone acetate]
[1]; CHF patients taking digoxin and a loop diuretic, spironolactone with digitalis and ACE inhibitor
  Reduction in mortality (risk of death): 30%
[1]; spironolactone group
  Patients who discontinued treatment because of adverse events: 8%
[1]; spironolactone treated group vs placebo group
  Frequency of hospitalization for worsening heart failure, lower than in the placebo group: 35%
[2]
  Gynecomastia or tender breast enlargement, occurrence in patients: 10%
other
  Water solubility: poor
